This is an account of results in BindingDB's records for PubMed 20126400 (University of Oklahoma, 2010).

pKi: −log10 of the molar value.

As usually defined, the pKi is the Ki on a negative log10 scale, so that one unit is a factor of ten. The low end stands for a large Ki, the high end for a small Ki.

Common to all, as to assay: Ray2010 Assay 74
Test [1] deals with 5-hydroxytryptamine receptor 1B (Homo sapiens, UniProt P28222). The source says:
(§1) Table S2 shows raw Ki data for the current study combined with data collected from the literature for the ten additional compounds.

Test [2] deals with 5-hydroxytryptamine receptor 1D (Homo sapiens, UniProt P28221).
Excerpt: as §1

The target of test [3] is 5-hydroxytryptamine receptor 5A (Homo sapiens, UniProt P47898).
Excerpt: as §1

Test [4] addresses T1, Alpha-1B adrenergic receptor (Homo sapiens, UniProt P35368).
T1 sequence (P35368 whole entry): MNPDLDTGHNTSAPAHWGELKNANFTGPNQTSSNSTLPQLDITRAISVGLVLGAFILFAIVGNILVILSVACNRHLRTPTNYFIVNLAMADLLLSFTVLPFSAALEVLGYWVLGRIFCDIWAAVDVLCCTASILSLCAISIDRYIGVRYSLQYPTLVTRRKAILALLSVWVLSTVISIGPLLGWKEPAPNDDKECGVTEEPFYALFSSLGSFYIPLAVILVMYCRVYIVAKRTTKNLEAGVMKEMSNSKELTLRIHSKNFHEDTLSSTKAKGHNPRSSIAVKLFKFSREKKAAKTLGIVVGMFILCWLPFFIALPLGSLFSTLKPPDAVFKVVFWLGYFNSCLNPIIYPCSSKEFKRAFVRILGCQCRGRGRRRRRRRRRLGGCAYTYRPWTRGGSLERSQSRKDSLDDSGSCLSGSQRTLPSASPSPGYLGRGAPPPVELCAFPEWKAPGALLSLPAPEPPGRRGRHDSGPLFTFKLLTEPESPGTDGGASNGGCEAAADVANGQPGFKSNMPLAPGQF
Excerpt: as §1

Test [5] has as its target D(2) dopamine receptor (Homo sapiens, UniProt P14416).
Excerpt: as §1

The target in test [6] is T2, D(4) dopamine receptor (Homo sapiens, UniProt P21917).
T2 sequence (P21917 whole entry): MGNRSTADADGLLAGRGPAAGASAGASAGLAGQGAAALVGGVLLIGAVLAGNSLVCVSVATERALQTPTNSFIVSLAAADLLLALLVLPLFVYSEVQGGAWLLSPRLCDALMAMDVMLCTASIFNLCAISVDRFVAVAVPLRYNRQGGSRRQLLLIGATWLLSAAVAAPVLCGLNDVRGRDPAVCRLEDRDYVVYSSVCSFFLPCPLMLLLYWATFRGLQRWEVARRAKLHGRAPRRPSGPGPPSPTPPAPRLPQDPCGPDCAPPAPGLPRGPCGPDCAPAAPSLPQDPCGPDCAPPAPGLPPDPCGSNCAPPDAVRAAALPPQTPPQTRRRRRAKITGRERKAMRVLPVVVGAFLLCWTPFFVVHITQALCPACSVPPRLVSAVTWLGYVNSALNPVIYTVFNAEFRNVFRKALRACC
Excerpt: as §1

Test [7] deals with Histamine H4 receptor (Homo sapiens, UniProt Q9H3N8).
Excerpt: as §1

Test [8] has as its target T3, Muscarinic acetylcholine receptor M2 (Homo sapiens, UniProt P08172).
T3 sequence (P08172 whole entry): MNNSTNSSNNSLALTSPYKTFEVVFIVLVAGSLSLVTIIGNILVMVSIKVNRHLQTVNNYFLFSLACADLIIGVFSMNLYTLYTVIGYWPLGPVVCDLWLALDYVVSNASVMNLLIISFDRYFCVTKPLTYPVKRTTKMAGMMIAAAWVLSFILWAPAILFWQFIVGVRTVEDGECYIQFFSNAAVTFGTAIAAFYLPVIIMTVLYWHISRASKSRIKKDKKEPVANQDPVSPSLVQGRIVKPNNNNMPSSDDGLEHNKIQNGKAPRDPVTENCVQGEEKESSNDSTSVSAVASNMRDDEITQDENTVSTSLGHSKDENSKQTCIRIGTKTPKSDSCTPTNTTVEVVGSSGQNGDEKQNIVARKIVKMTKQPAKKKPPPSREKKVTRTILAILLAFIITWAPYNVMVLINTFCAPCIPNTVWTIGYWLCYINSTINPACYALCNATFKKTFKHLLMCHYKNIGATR
Excerpt: as §1

The target in test [9] is Sodium-dependent noradrenaline transporter (Homo sapiens, UniProt P23975).
Excerpt: as §1

For test [10], the target named is Sodium-dependent serotonin transporter (Homo sapiens, UniProt P31645).
Excerpt: as §1

The target of test [11] is Delta-type opioid receptor (Homo sapiens, UniProt P41143).
Excerpt: as §1

The target of test [12] is Glutamate receptor ionotropic, NMDA 2A (Homo sapiens, UniProt Q12879).
Excerpt: as §1

Test [13] deals with Histamine H1 receptor (Homo sapiens, UniProt P35367).
Excerpt: as §1

The target in test [14] is T4, Muscarinic acetylcholine receptor M1 (Homo sapiens, UniProt P11229).
T4 sequence (P11229 whole entry): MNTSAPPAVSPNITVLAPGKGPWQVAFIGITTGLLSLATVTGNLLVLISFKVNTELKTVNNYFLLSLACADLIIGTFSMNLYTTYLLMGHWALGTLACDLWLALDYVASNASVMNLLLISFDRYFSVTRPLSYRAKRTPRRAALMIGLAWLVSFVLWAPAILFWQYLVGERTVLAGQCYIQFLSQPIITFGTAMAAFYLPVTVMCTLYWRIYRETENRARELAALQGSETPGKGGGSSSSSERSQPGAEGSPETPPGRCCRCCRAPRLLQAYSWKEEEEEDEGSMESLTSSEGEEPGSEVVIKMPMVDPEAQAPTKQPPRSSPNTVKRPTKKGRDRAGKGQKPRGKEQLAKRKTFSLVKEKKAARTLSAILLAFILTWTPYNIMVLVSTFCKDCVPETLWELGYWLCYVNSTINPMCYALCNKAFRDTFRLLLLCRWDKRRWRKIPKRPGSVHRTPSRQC
Excerpt: as §1

Histamine H4 receptor, sequence (Q9H3N8 whole entry): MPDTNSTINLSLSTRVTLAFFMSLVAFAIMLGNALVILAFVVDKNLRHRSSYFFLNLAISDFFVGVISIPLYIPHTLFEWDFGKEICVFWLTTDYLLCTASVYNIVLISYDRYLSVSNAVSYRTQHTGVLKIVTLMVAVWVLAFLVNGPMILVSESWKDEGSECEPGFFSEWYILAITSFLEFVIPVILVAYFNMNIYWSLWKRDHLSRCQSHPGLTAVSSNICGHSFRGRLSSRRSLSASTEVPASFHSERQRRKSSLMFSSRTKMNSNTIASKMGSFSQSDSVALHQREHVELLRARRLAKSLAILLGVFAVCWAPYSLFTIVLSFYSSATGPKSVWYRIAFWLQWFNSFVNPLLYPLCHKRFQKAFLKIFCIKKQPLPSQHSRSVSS
Sodium-dependent noradrenaline transporter, sequence (P23975 whole entry): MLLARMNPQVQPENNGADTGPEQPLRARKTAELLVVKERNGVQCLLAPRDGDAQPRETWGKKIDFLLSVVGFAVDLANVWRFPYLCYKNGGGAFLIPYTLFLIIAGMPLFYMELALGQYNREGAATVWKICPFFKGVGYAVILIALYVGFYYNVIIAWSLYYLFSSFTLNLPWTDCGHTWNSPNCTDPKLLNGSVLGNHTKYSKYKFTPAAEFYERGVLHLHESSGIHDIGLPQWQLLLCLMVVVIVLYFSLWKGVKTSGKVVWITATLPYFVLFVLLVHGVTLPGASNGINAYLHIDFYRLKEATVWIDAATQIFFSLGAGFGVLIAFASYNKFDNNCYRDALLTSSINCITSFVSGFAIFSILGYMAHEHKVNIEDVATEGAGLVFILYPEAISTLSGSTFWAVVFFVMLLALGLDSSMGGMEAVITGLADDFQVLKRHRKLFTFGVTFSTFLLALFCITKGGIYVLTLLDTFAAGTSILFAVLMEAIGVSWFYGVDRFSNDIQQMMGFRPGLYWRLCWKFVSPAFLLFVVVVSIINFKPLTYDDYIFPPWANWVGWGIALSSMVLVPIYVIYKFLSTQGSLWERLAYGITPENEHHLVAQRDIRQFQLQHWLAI
5-hydroxytryptamine receptor 1B, sequence (P28222 whole entry): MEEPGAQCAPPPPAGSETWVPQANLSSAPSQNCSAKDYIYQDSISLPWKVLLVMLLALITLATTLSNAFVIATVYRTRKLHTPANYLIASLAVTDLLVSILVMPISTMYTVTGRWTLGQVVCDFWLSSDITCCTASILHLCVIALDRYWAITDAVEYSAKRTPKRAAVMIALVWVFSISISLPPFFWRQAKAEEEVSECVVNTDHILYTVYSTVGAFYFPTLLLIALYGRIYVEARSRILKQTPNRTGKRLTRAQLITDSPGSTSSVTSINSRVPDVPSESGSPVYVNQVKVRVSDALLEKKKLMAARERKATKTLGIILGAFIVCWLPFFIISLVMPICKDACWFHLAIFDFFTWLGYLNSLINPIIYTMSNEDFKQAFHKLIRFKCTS
5-hydroxytryptamine receptor 1D, sequence (P28221 whole entry): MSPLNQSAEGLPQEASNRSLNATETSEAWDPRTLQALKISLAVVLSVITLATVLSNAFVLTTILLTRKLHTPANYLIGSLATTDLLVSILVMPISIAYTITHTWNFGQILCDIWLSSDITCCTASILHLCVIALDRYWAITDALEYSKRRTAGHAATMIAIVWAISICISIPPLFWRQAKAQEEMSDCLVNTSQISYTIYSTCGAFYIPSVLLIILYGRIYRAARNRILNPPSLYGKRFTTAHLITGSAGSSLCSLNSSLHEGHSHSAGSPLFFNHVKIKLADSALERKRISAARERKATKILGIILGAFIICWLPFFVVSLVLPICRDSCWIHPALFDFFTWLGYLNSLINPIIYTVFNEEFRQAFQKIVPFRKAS
Delta-type opioid receptor, sequence (P41143 whole entry): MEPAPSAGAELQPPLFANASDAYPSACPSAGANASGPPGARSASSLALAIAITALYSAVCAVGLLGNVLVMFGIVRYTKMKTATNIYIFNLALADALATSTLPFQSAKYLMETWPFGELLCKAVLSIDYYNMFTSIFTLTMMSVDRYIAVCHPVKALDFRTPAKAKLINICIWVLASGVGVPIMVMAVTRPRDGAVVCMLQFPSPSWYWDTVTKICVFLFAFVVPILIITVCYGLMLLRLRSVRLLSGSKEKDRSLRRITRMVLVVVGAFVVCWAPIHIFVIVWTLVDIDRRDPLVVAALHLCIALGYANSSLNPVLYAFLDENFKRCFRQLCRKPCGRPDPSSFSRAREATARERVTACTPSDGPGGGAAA
Glutamate receptor ionotropic, NMDA 2A, sequence (Q12879 whole entry): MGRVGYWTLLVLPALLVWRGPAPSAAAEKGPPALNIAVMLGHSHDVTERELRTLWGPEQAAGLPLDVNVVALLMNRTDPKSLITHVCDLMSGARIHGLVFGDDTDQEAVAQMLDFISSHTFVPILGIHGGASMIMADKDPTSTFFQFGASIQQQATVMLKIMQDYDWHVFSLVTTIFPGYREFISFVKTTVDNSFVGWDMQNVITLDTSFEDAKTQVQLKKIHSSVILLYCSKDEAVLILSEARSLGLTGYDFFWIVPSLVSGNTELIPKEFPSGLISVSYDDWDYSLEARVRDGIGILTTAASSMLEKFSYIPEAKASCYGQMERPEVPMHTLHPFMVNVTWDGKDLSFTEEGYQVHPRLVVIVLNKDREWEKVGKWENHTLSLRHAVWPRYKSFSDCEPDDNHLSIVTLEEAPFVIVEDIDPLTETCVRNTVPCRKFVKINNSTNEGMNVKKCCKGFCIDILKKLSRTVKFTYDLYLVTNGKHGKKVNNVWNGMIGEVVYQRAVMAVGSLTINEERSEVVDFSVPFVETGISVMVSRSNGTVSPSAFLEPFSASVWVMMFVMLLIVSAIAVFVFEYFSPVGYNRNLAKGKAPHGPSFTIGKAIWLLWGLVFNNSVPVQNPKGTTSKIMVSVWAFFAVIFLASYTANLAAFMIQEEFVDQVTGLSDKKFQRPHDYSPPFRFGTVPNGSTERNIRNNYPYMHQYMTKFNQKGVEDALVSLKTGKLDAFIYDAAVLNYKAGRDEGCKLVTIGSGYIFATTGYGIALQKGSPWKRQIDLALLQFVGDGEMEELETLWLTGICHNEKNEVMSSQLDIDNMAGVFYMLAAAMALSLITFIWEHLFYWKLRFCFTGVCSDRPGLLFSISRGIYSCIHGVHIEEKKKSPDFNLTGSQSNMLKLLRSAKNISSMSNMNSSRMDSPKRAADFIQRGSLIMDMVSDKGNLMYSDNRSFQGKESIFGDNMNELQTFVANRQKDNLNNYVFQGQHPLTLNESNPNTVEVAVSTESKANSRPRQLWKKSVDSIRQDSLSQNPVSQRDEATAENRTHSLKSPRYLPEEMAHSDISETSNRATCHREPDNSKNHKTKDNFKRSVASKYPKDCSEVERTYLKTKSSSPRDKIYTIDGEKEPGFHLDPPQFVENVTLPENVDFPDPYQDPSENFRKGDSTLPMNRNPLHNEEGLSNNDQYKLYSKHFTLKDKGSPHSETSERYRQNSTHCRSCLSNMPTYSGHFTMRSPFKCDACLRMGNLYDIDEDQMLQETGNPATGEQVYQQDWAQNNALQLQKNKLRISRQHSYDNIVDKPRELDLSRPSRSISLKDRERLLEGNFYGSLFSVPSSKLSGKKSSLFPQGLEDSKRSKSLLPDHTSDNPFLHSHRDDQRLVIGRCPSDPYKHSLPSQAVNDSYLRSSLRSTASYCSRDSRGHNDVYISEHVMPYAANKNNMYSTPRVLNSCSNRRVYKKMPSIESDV
Sodium-dependent serotonin transporter, sequence (P31645 whole entry): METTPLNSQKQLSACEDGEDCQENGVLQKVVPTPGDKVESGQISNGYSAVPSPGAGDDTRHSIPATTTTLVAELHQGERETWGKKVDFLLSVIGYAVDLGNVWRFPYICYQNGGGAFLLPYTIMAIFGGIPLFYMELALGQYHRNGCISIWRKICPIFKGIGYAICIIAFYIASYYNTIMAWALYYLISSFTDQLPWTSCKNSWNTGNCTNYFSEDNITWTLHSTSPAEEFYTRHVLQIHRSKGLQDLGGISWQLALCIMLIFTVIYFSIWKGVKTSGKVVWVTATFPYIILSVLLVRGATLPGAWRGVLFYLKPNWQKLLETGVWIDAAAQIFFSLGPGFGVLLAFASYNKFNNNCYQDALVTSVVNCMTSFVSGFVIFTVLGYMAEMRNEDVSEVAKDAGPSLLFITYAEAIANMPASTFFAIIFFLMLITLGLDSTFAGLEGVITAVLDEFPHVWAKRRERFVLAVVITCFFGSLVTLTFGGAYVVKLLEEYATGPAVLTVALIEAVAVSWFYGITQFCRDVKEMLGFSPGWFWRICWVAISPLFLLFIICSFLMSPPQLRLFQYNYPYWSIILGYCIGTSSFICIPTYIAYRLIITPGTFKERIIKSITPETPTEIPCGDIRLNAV
5-hydroxytryptamine receptor 5A, sequence (P47898 whole entry): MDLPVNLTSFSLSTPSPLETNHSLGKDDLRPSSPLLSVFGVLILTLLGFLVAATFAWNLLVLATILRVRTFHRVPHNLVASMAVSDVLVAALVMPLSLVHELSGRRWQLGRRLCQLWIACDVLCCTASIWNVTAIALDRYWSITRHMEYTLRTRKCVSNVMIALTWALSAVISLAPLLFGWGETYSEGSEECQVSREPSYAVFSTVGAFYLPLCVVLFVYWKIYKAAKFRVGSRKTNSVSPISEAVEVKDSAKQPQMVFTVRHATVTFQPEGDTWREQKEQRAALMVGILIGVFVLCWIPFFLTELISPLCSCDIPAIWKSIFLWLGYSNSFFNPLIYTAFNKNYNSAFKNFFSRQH

As for `CC(N)Cc1ccc2c(c1)OCO2` (stereo unspecified), the pKi in [1], in [2], in [3], in test [4], in test [5] and in [6] was < 5.00 each time. Besides, the pKi in [7], in [8], in test [9] and in test [10] was < 5.00 in each case.

As to `COc1cc(CC(C)N)cc(OC)c1OC` (stereo unspecified), the pKi in [1] is 5.54; in test [2], 5.52; in [3], < 5.00; in [4], < 5.00; in [5], < 5.00; in test [6] it was < 5.00. Besides, the pKi in [11], in test [12], in [13], in test [7], in test [8] and in test [9] was < 5.00 each time. Moreover, the pKi in test [10] is < 5.00.

For the compound `CC[C@H]1C[C@@H]2C[C@H]3c4[nH]c5ccc(OC)cc5c4CCN(C2)[C@@H]13`, the pKi in test [1] is < 5.00; in test [2], < 5.00; in test [5], < 5.00; in [6], < 5.00; in test [11] it was < 5.00; in [12], 5.70. The pKi in [13] was < 5.00; in [14], 4.65; in [8], 4.40.

Regarding `CCc1cc(OC)c(CC(C)N)cc1OC` (stereo unspecified), the pKi in [1] was 5.55; in [2], 5.18; in test [3] it was < 5.00; in [4] it was < 5.00; in [5], < 5.00; in [6], < 5.00. Also, the pKi in test [11], in test [12], in test [13], in test [7], in test [8] and in [9] was < 5.00 throughout. For the same compound, in test [10], the pKi was < 5.00.

Consider `CN(C)CCc1c[nH]c2ccccc12` [2-(1H-indol-3-yl)-N,N-dimethylethanamine], for which the negative-log Ki (pKi) was < 5.00 in test [1]; 7.03 in test [2]; 6.21 in [3]; 6.01 in test [4]; < 5.00 in test [5]; < 5.00 in test [6]. Also, the pKi in [7] was < 5.00; in [14], < 5.00; in test [8] it was < 5.00; in [9] it was < 5.00; in test [10], 5.43.

Consider `NCCc1c2c(c(Br)c3c1OCC3)OCC2` [2-(8-Bromo-2,3,6,7-tetrahydro-benzo[1,2-b;4,5-b']difuran-4-yl)-ethylamine], for which the negative-log Ki (pKi) was 6.73 in [1]; 8.85 in test [2]; < 5.00 in [3]; < 5.00 in test [4]; 5.17 in test [5]; < 5.00 in test [6]. Also, the pKi in test [11] is < 5.00; in [13] it was 5.24; in test [7] it was < 5.00; in test [8], 5.69; in test [9] it was < 5.00; in [10] it was < 5.00.

Take `COC(=O)[C@@H]1C[C@H](OC(C)=O)C(=O)[C@H]2[C@@]1(C)CC[C@H]1C(=O)O[C@H](c3ccoc3)C[C@]21C` [2S,4aR,6a(R,7R,9S,10aS,10bR)-9-(acetyloxy)-2-(furan-3-yl)dodecahydro-6a,10b-dimethyl-4,10-dioxo-2H-naphtho[2,1-c]pyran-7-carboxylic acid methyl ester]: the pKi in test [1], in test [2], in [3], in test [4], in [5] and in test [6] was < 5.00 in each case. Moreover, the pKi in [13], in [14], in test [8] and in [10] was < 5.00 throughout.

`COc1ccc2[nH]cc(CCN(C)C)c2c1` [3-(2-DIMETHYLAMINOETHYL)-5-METHOXYINDOLE]: the pKi is < 5.00 in [4]; 5.45 in [5]; 5.51 in [6]; < 5.00 in [14]; < 5.00 in test [8]; 5.54 in test [9]. This compound also had a pKi in test [10] of 5.69.

For `COc1cc(OC)c(OC)cc1CC(C)N` (stereo not drawn) [(+/-)1-Methyl-2-(2,4,5-trimethoxy-phenyl)-ethylamine], the pKi in [1], in test [2], in test [3], in test [4], in test [5] and in test [6] was < 5.00 throughout. In addition, the pKi in test [13] is 5.85; in test [7], < 5.00; in test [8] it was < 5.00; in test [9] it was < 5.00; in [10], < 5.00.

Consider `CCN(CC)C(=O)[C@@H]1C=C2c3cccc4[nH]cc(c34)C[C@H]2N(C)C1` [[N-methyl-3H]LSD], for which the pKi in test [1] is 8.41; in [2], 8.11; in test [4], 5.06; in test [5] it was 6.96; in test [6], 6.80; in [11] it was < 5.00. The negative logarithm of the Ki (pKi) in [12], in [9] and in [10] was < 5.00 throughout.

For `C[C@@H]1C[C@H](C)N1C(=O)C1C=C2c3cccc4[nH]cc(c34)C[C@H]2N(C)C1` (stereo partly drawn) [cis-2a], the pKi in test [1] was 8.43; in test [3], 7.79; in [4], < 5.00; in test [5] it was 7.31; in [11], < 5.00; in test [12] it was < 5.00. Moreover, the pKi is 6.30 in [13], < 5.00 in [9] and < 5.00 in [10].

Consider `CNC(C)Cc1ccc2c(c1)OCO2` (stereo unspecified) [mdma], for which the pKi in test [1], in test [2], in test [3], in test [4], in test [5] and in [6] was < 5.00 in each case. Also, the pKi in test [12], in test [13], in test [14], in [8], in test [9] and in [10] was < 5.00 throughout.

For the compound `C[C@@H]1C[C@@H](C)N1C(=O)C1C=C2c3cccc4[nH]cc(c34)C[C@H]2N(C)C1` (stereo partly specified) [rr-2b], the pKi was 8.70 in test [1]; 7.74 in test [2]; 7.90 in test [3]; < 5.00 in test [4]; 6.58 in [5]; < 5.00 in test [11]. Further, the pKi in test [12] was < 5.00; in test [13], 5.84; in [9], < 5.00; in test [10] it was < 5.00.
